Assays:
[1] = system: VRC5 human colon adenocarcinomas; experiment: Antitumor activity in mice bearing human colon xenograft VRC5, oral dosing; assay type: in vivo, CD1 Nu/Nu mice; details: VRC5 tumor, daily for 10 days; for Percent Inhibition: inhibition of tumor growth vs control; for Toxic/Total: mice which died / total animals in group
From the text: One of the tumor models used for showing the anti-neoplastic activity of the sulfonylureas of this invention was the human colon xenograft VRC5. J.A. Houghton and D.M. Taylor, British Journal of Cancer, 37:213-223 (1978). This tumor was obtained from St. Jude's Children's Research Hospital and has been widely used as a human tumor model.
(§1) First passage tumors were stored in liquid nitrogen, using standard techniques. The transplanted tumor was reestablished from the Tumor Bank every six months or as needed. The tumor was maintained by serial passage twice weekly in the host mice.
(§2) In the procedures utilized here, the tumor was removed from passage animals and minced into cubic fragments having 1 to 3 mm edges using sterile techniques. Tumor pieces were checked for sterility using both Antibiotic Medium 1 and Brain Heart Infusion (Difco, Detroit, Michigan). The xenograft tumor pieces were implanted into the recipient CD1 Nu/Nu mice subcutaneously in an axillary site by trochar. The allograft 6C3HED tumor pieces were implanted into the recipient C3H mice in an analogous fashion.
(§3) Drug therapy on the appropriate schedule was initiated seven days after tumor implantation for the mice bearing the xenograft tumors, one day after implantation for the mice bearing the 6C3HED lymphosarcoma. The compound being tested was mixed with 2.5% Emulphor EL620 from GAF Corporation (1:40 dilution in 0.9% saline). The total dosage volume for each administration was 0.5 ml. All animals were weighed at the beginning and end of administration of the subject compounds. Food and water were provided ad libitum.
(§4) Each control group and each dosage level of the treated groups consisted of 9 or 10 mice selected at random from the pool of implanted animals. The formulations were administered orally by gavage with the use of an 18-gauge needle. Compounds were dosed daily for 10 days for the studies using the human tumor xenografts and 8 days for the studies using the allograft.
(§5) The tumor was measured five days after treatment ended with two dimensional measurements (width and length) of the tumor taken using digital electronic calipers interfaced to a microcomputer. J.F. Worzalla, et al., Investigational New Drugs, 8:241-251 (1990). Tumor weights were calculated from these measurements using the following formula: Tumor weight (mg) =[…] [formula] At least one control group of an equal number of mice was treated with the same volume of 2.5% Emulphor only. The percent inhibition is determined by subtracting the ratio of the mean tumor size of the test group relative to the control group from one and multiplying the result by 100.
(§6) The results of several experiments in mice bearing the VRC5 human colon adenocarcinomas, and the 6C3HED lymphosarcoma when the Formula I compounds were administered orally are provided in Table I. In the table, Column 1 refers to the example number of the compound tested; Column 2 describes the particular human tumor xenograft or mouse allograft being studied; Column 3 gives the dosage level of the compound of Formula I in milligrams per kilogram of body weight; Column 4 describes the percent inhibition of tumor growth; and Column 5 tallies the number of mice which died during the course of the experiment relative to the total number of animals in the group.

6C3HED lymphosarcoma = experiment: Antitumor activity in mice bearing allograft 6C3HED lymphosarcoma, oral dosing; assay type: in vivo, C3H mice; details: 6C3HED tumor, daily for 8 days; for Percent Inhibition: inhibition of tumor growth vs control; for Toxic/Total: mice which died / total animals in group
From the text: Another tumor model employed C3H mice bearing the widely used allograft 6C3HED lymphosarcoma, also known as the Gardner lymphosarcoma (GLS). The 6C3HED lymphosarcoma was obtained from the Division of Cancer Treatment, National Cancer Institute, Tumor Bank, maintained at E. G. and G. Mason Research (Worcester, Massachusetts).
as §1, §2, §3, §4, §5, §6

| Molecule | Percent Inhibition ([1]; 20 mg/kg orally by gavage) [%] | Toxic/Total ([1]; 20 mg/kg orally) | Percent Inhibition ([1]; 40 mg/kg orally by gavage) [%] | Toxic/Total ([1]; 40 mg/kg orally) | Percent Inhibition ([1]; 80 mg/kg orally by gavage) [%] | Toxic/Total ([1]; 80 mg/kg orally) | Percent Inhibition (6C3HED lymphosarcoma; 280 mg/kg orally by gavage) [%] | Toxic/Total (6C3HED lymphosarcoma; 280 mg/kg orally) | Percent Inhibition (6C3HED lymphosarcoma; 450 mg/kg orally by gavage) [%] | Toxic/Total (6C3HED lymphosarcoma; 450 mg/kg orally) | Percent Inhibition (6C3HED lymphosarcoma; 900 mg/kg orally by gavage) [%] | Toxic/Total (6C3HED lymphosarcoma; 900 mg/kg orally) |
| --- | --- | --- | --- | --- | --- | --- | --- | --- | --- | --- | --- | --- |
| N-[[(3,4-dichlorophenyl)amino]carbonyl]-1-methyl-1H-indole-5-sulfonamide [Example 3] | 81 | 1/9 | 95 | 1/10 | 100 | 0/10 | – | – | – | – | – | – |
| O=C(Nc1ccc(Cl)cc1)NS(=O)(=O)c1ccc2c(c1)CCN2 [Example 1, N-[[(4-chlorophenyl)amino]carbonyl]-2,3-dihydro-1H-indole-5-sulfonamide] | – | – | – | – | – | – | 44 | 0/9 | – | – | – | – |
| O=C(Nc1ccc(Cl)c(Cl)c1)NS(=O)(=O)c1ccc2c(c1)CCN2 [Example 2, N-[[(3,4-dichlorophenyl)amino]carbonyl]-2,3-dihydro-1H-indole-5-sulfonamide] | 18 | 0/9 | 56 | 0/9 | – | – | – | – | 100 | 0/10 | 100 | 1/10 |

Reference: patent publication EP0614887B1, “Indole-sulfonamides as antitumor agents” (ELI LILLY AND COMPANY, priority 1993, dated 1994)
